Several values for one entry are separate records, joined by “and”; a condition that tells them apart may be missing. Identical values can stand only once.
Tests used:
[1] = 101.33 kPa, Crystal, Vacuum adiabatic calorimetry
[2] = molar heat capacity at constant pressure; conditions: 101.33 kPa, Crystal, Vacuum adiabatic calorimetry

[S-2].[Zn+2] [zinc sulfide]
Conditions | molar entropy, [1] [J/K/mol] | molar heat capacity at constant pressure, [2]
1 K | 3.1e-05 | 0.000119 J/K/mol
2 K | 0.00031 | 0.000958 J/K/mol
4 K | 0.002561 | 0.007765 J/K/mol
6 K | 0.00879 | 0.02685 J/K/mol
8 K | 0.0213 | 0.06618 J/K/mol
10 K | 0.043 | 0.1376 J/K/mol
12 K | 0.078 | 0.2601 J/K/mol
13.23 K | – | 0.1984 J/K/mol
14 K | 0.1317 | 0.4569 J/K/mol
16 K | 0.2106 | 0.7475 J/K/mol
16.01 K | – | 0.5445 J/K/mol
17.97 K | – | 1.025 J/K/mol
18 K | 0.3203 | 1.14 J/K/mol
19.61 K | – | 1.553 J/K/mol
20 K | 0.4649 | 1.628 J/K/mol
21.54 K | – | 2.093 J/K/mol
23.46 K | – | 2.68 J/K/mol
25 K | 0.987 | 3.17 J/K/mol
25.99 K | – | 3.508 J/K/mol
28.89 K | – | 4.52 J/K/mol
30 K | 1.72 | 4.941 J/K/mol
31.66 K | – | 5.487 J/K/mol
34.78 K | – | 6.6 J/K/mol
35 K | 2.617 | 6.734 J/K/mol
37.93 K | – | 7.702 J/K/mol
40 K | 3.629 | 8.454 J/K/mol
41.05 K | – | 8.761 J/K/mol
44.22 K | – | 9.788 J/K/mol
45 K | 4.72 | 10.08 J/K/mol
47.06 K | – | 10.71 J/K/mol
50 K | 5.863 | 11.63 J/K/mol
51.43 K | – | 12.16 J/K/mol
53.49 K | – | 12.83 J/K/mol
55 K | 7.041 | 13.11 J/K/mol
55.51 K | – | 13.31 J/K/mol
57.5 K | – | 14 J/K/mol
59.41 K | – | 14.51 J/K/mol
60 K | 8.244 | 14.56 J/K/mol
61.72 K | – | 15.17 J/K/mol
64.45 K | – | 15.93 J/K/mol
65 K | 9.466 | 15.99 J/K/mol
67.18 K | – | 16.76 J/K/mol
69.7 K | – | 17.39 J/K/mol
70 K | 10.7 | 17.39 J/K/mol
72.52 K | – | 18.2 J/K/mol
75 K | 11.95 | 18.77 J/K/mol
75.26 K | – | 18.97 J/K/mol
77.99 K | – | 19.74 J/K/mol
80 K | 13.2 | 20.13 J/K/mol
80.73 K | – | 20.47 J/K/mol
83.59 K | – | 21.24 J/K/mol
85 K | 14.47 | 21.46 J/K/mol
86.48 K | – | 22.17 J/K/mol
90 K | 15.73 | 22.77 J/K/mol
91.62 K | – | 23.27 J/K/mol
95 K | 16.99 | 24.03 J/K/mol
95.13 K | – | 24.19 J/K/mol
98.85 K | – | 25.12 J/K/mol
100 K | 18.26 | 25.25 J/K/mol
102.42 K | – | 26.14 J/K/mol
106.06 K | – | 26.79 J/K/mol
109.93 K | – | 27.68 J/K/mol
110 K | 20.77 | 27.55 J/K/mol
113.87 K | – | 28.52 J/K/mol
117.79 K | – | 29.35 J/K/mol
120 K | 23.26 | 29.66 J/K/mol
121.86 K | – | 30.17 J/K/mol
125.61 K | – | 30.87 J/K/mol
129.43 K | – | 31.59 J/K/mol
130 K | 25.71 | 31.58 J/K/mol
133.29 K | – | 32.28 J/K/mol
137.15 K | – | 32.9 J/K/mol
140 K | 28.12 | 33.3 J/K/mol
141.04 K | – | 33.52 J/K/mol
144.93 K | – | 34.17 J/K/mol
149.88 K | – | 35.06 J/K/mol
150 K | 30.47 | 34.85 J/K/mol
155.67 K | – | 35.74 J/K/mol
159.17 K | – | 36.12 J/K/mol
160 K | 32.76 | 36.24 J/K/mol
164 K | – | 36.77 J/K/mol
168.93 K | – | 37.35 J/K/mol
170 K | 35 | 37.49 J/K/mol
173.91 K | – | 37.96 J/K/mol
178.77 K | – | 38.48 J/K/mol
180 K | 37.17 | 38.6 J/K/mol
184.05 K | – | 38.9 J/K/mol
189.4 K | – | 39.43 J/K/mol
190 K | 39.29 | 39.6 J/K/mol
194.4 K | – | 39.95 J/K/mol
199.39 K | – | 40.39 J/K/mol
200 K | 41.34 | 40.5 J/K/mol
204.53 K | – | 40.77 J/K/mol
209.77 K | – | 41.2 J/K/mol
210 K | 43.34 | 41.32 J/K/mol
214.65 K | – | 41.55 J/K/mol
219.66 K | – | 41.93 J/K/mol
220 K | 45.28 | 42.05 J/K/mol
224.69 K | – | 42.27 J/K/mol
230 K | 47.16 | 42.62 J/K/mol and 42.72 J/K/mol
235.27 K | – | 42.91 J/K/mol
240 K | 48.99 | 43.32 J/K/mol
240.27 K | – | 43.24 J/K/mol
245.33 K | – | 43.69 J/K/mol
250 K | 50.77 | 43.88 J/K/mol
250.45 K | – | 43.78 J/K/mol
258.21 K | – | 44.25 J/K/mol
260 K | 52.5 | 44.38 J/K/mol
263.65 K | – | 44.4 J/K/mol
269.02 K | – | 44.71 J/K/mol
270 K | 54.19 | 44.84 J/K/mol
274.56 K | – | 44.99 J/K/mol
280 K | 55.83 | 45.27 J/K/mol
280.13 K | – | 45.24 J/K/mol
285.72 K | – | 45.48 J/K/mol
290 K | 57.42 | 45.66 J/K/mol
291.19 K | – | 45.73 J/K/mol
297.09 K | – | 45.7 J/K/mol
300 K | 58.98 | 46.03 J/K/mol
304.72 K | – | 46.14 J/K/mol
310 K | 60.49 | 46.36 J/K/mol
312.85 K | – | 46.5 J/K/mol
320 K | 61.97 | 46.68 J/K/mol

Reference: the NIST ThermoML archive (doi:10.1016/j.tca.2016.08.006)
